Laboratory results taken from patent publication US5763408A, “Amino acid derivatives and application thereof” (Fuji Photo Film Co., Ltd., priority 1992, dated 1998).

Assays:
[1] = test system: PRP (polyplatelet rich plasma); test: Platelet aggregation inhibition activity (ADP-induced aggregation in PRP); format: cell-based; conditions: for Platelet aggregation inhibition rate (%): test compound 1 mg/ml in PRP, ADP as inducer, five minutes later
Procedure: Platelet aggregation inhibition activities of Compounds 1, 2, 3, 4, 5, 6, 7 and 15 were examined.
A test compound was added to PRP (polyplatelet rich plasma, 3×10^8 cells/ml) so that the plasma contained the compound at a concentration of 1 mg/ml and the plasma was added with 10 μl of ADP as an aggregation inducing substance. Five minutes later, aggregation ratio was determined by a chronologic whole blood aggregation ability measuring apparatus to calculate platelet aggregation inhibition ratio.

B16-BL6 melanoma cells = test: Experimental metastasis test of B16-BL6 melanoma cells in lung; format: in vivo, C57BL/6 female mice; conditions: day 14
Procedure: Tumor metastasis inhibition activities of the compounds of the present invention were examined.
(§1) A test compound and B16-BL6 melanoma cells, which have strong metastatic property, were mixed in PBS. 0.2 ml of the mixture was intravenously injected to each of C57BL/6 female mice, of which groups each consisted of 5 mice. The mixture injected (0.2 ml) contained 5×10^4 B16-BL6 cells. On the 14th day from the administration, number of melanoma cell colonies was determined and compared with that of control mice, which were administered with PBS.

[2] = test system: L5178Y-ML25 T-lymphoma cells; test: Experimental metastasis of L5178Y-ML25 T-lymphoma cells (weights of livers and spleens); format: in vivo, CDF1 mice; conditions: day 14, in g (unit assumed); for Weight of spleen (Mean ± SD): PBS 0.23 ± 0.03, no lymphoma cell 0.12 ± 0.02; for Weight of liver (Mean ± SD): PBS 4.18 ± 0.30, no lymphoma cell 1.36 ± 0.02
Procedure: A test compound and L5178Y-ML25 T-lymphoma cells were mixed in PBS. 0.2 ml of the mixture was intravenously injected to each of CDF1 mice, of which groups each consisted of 5 mice. The mixture injected (0.2 ml) contained 4×10^4 L5178Y-ML25 T-lymphoma cells. On the 14th day from the administration, weights of livers and spleens of mice were determined and compared with those of control mice, which were administered with PBS.

colon 26/M3.1 cells = test: Experimental metastasis test of colon 26/M3.1 cells in lung; format: in vivo, C57BL/6 female mice; conditions: Table 13, 1000 μg/mouse, day 14, PBS control 148 ± 12
Procedure: as §1, with “colon 26/M3.1” for “B16-BL6 melanoma”, “4×10^4 colon 26/M3.1” for “5×10^4 B16-BL6”, “of” for “of melanoma cell”, “colonies in lung” for “colonies”
A segment peptide of fibronectin, Gly-Arg-Gly-Asp-Ser (GRGDS), of which tumour metastasis inhibition activities have been known, was used as a comparative sample.

[3] = Table 4, 500 μg/mouse, PBS control 96 ± 14
[4] = Table 5, 1000 μg/mouse, PBS control 118 ± 15
[5] = Table 6, 500 μg/mouse, PBS control 103 ± 30
[6] = Table 7, 500 μg/mouse, PBS control 101 ± 28
[7] = Table 11, 500 μg/mouse, PBS control 114 ± 28

N=C(N)NCCC[C@H](NC(=O)CC(=O)N[C@@H](CC(=O)O)C(=O)O)C(=O)O [Compound 1]
IC50 ([1]; platelet aggregation, PRP, ADP): 2400 µM
Platelet aggregation inhibition rate (%) [1]: 57%
Number of colonies (Mean ± SD) (B16-BL6 melanoma cells; Table 2, 1000 μg/mouse i.v. mixed with cells, PBS control 141 ± 16): 46 ± 10
Number of colonies (Mean ± SD) (B16-BL6 melanoma cells; [3]): 13 ± 6
Number of colonies (Mean ± SD) (B16-BL6 melanoma cells; [4]): 25 ± 8
Number of colonies (Mean ± SD) (B16-BL6 melanoma cells; [5]): 63 ± 23
Number of colonies (Mean ± SD) (B16-BL6 melanoma cells; [6]): 19 ± 11
Weight of spleen (Mean ± SD) ([2]; 100 μg/mouse): 0.18 ± 0.02
Weight of liver (Mean ± SD) ([2]; 100 μg/mouse): 3.09 ± 0.78
Weight of spleen (Mean ± SD) ([2]; 500 μg/mouse): 0.20 ± 0.02
Weight of liver (Mean ± SD) ([2]; 500 μg/mouse): 2.98 ± 0.29
Weight of spleen (Mean ± SD) ([2]; 1000 μg/mouse): 0.14 ± 0.01
Weight of liver (Mean ± SD) ([2]; 1000 μg/mouse): 1.84 ± 0.36
Number of colonies (Mean ± SD) (colon 26/M3.1 cells): 31 ± 26

N=C(N)NCCC[C@@H](NC(=O)CC(=O)N[C@@H](CC(=O)O)C(=O)O)C(=O)O [Compound 2]
Platelet aggregation inhibition rate (%) [1]: 53%
Number of colonies (Mean ± SD) (B16-BL6 melanoma cells; Table 3, 500 μg/mouse, PBS control 81 ± 23): 39 ± 13
Number of colonies (Mean ± SD) (B16-BL6 melanoma cells; Table 3, 1000 μg/mouse, PBS control 81 ± 23): 3 ± 2
Number of colonies (Mean ± SD) (B16-BL6 melanoma cells; [3]): 23 ± 9
Number of colonies (Mean ± SD) (B16-BL6 melanoma cells; [5]): 72 ± 15
Number of colonies (Mean ± SD) (B16-BL6 melanoma cells; [6]): 38 ± 16

CNC(=O)C(CC(=O)O)NC(=O)CC(=O)NC(CCCNC(=N)N)C(=O)O (stereo not shown) [Compound 8]
Number of colonies (Mean ± SD) (B16-BL6 melanoma cells; [3]): 55 ± 12
Number of colonies (Mean ± SD) (B16-BL6 melanoma cells; [4]): 24 ± 9

CNC(=O)C(CCCNC(=N)N)NC(=O)CC(=O)NC(CC(=O)O)C(=O)O (stereo not shown) [Compound 12]
Number of colonies (Mean ± SD) (B16-BL6 melanoma cells; [3]): 58 ± 20
Number of colonies (Mean ± SD) (B16-BL6 melanoma cells; [4]): 19 ± 6

CNC(=O)C(CCCNC(=N)N)NC(=O)CC(=O)NC(CC(=O)O)C(=O)NC (stereo not shown) [Compound 14]
Number of colonies (Mean ± SD) (B16-BL6 melanoma cells; [3]): 94 ± 26
Number of colonies (Mean ± SD) (B16-BL6 melanoma cells; [4]): 69 ± 7

N=C(N)NCCC[C@H](NC(=O)CC(=O)N[C@@H](CC(=O)O)C(=O)N[C@@H](CO)C(=O)O)C(=O)O [Compound 15]
Platelet aggregation inhibition rate (%) [1]: 47%
Number of colonies (Mean ± SD) (B16-BL6 melanoma cells; [5]): 39 ± 17
Number of colonies (Mean ± SD) (B16-BL6 melanoma cells; [6]): 32 ± 8

N=C(N)NCCCC(NC(=O)CC(=O)NC(CC(=O)O)C(=O)O)C(=O)NCC(=O)O (stereo not shown) [Compound 19]
Number of colonies (Mean ± SD) (B16-BL6 melanoma cells; Table 8, 1000 μg/mouse, PBS control 168 ± 28): 32 ± 8
Number of colonies (Mean ± SD) (B16-BL6 melanoma cells; Table 9, 1000 μg/mouse, PBS control 168 ± 28): 32 ± 8

N=C(N)NCCCC(NC(=O)C(=O)NC(CC(=O)O)C(=O)O)C(=O)O (stereo not shown) [Compound 33]
Number of colonies (Mean ± SD) (B16-BL6 melanoma cells; [7]): 51 ± 18

N=C(N)NCCCC(NCC(=O)NC(CC(=O)O)C(=O)O)C(=O)O (stereo not shown) [Compound 34]
Number of colonies (Mean ± SD) (B16-BL6 melanoma cells; [7]): 51 ± 19

N=C(N)NCCCC(NC(=O)CNC(CC(=O)O)C(=O)O)C(=O)O (stereo not shown) [Compound 35]
Number of colonies (Mean ± SD) (B16-BL6 melanoma cells; [7]): 52 ± 14
